Here are results for 1 molecule from patent US20260216343A1, “CONJUGATE, MICELLE AND ANTICANCER AGENT” (TOHOKU UNIVERSITY, priority 2023, published 2026).

Counter-ions that a name gives are not always drawn.

For one data set, the system named is WT-GFP cells (Hepa1). Put plainly: Cell fluorescence analysis (relative fluorescence as cell survival) after HF treatment. Type of data set: cell-based. The note with it: HF at various doses up to 50 nM, 48 hours. The protocol:
(§1) WT-GFP and Keap1-mCherry Hepa1 cells were prepared in the same manner as in Mol Cell Biol., 2020 Oct 26, 40(22). The cells were maintained in Dulbecco's modified Eagle's medium (DMEM) containing 10% (v/v) fetal bovine serum and antibiotics (penicillin-streptomycin) at 37° C. and 5% CO2.
(§2) For cell fluorescence analysis, 4×10^4 WT-GFP cells and 2×10^4 Keap1-mCherry Hepa1 cells were cultured separately on day −1 in a black 96-well plate (Corning; number 3904). On day 0, HF or saline was introduced at various concentrations, and then the plate was returned to an incubator at 37° C. until day 2. The fluorescence intensities of the cells were measured using a PHERAstar FS microplate reader (BMG Labtech, Ortenberg, Germany).
(§3) HF has been reported to suppress Nrf2 accumulation in cells (FIG. 1A). To examine the tumor suppressive role of HF in Nrf2-activated tumor cells, enhanced green fluorescent protein (EGFP)-expressing wild type (WT) Hepa1 cells (hereinafter also referred to as “WT-GFP cells”) and mCherry-expressing Keap1 knockout cells (hereinafter also referred to as “Keap1 KO-mCherry cells”) were treated with HF. Both isogenic cell lines used were the same as those in Mol Cell Biol., 2020 Oct 26, 40(22). […] It has been shown in Mol Cell Biol., 2020 Oct 26, 40(22) that there is a correlation between the relative fluorescence intensity and the cell survival rate.

Data set [1] relates to Keap1 KO-mCherry cells (Hepa1). The data set is described as above. Type of data set: cell-based. The note with it: HF at various doses up to 50 nM, 48 hours. The protocol:
as §1, §2, §3

In data set [2] the test system is Nrf2 protein in WT-GFP cells. Put plainly: Immunoblotting of Nrf2 protein after HF treatment. It counts as cell-based. The note with it: 50 nM HF, 0-18 hours, whole cell lysates. The protocol: (§4) For analyzing cultured cells, 1×10^6 WT-GFP and Keap1-mCherry Hepa1 cells were separately seeded on day −1 and treated with 50 nM HF on the next day (day 0). Whole cell lysates were prepared by lysing the cells with SDS buffer (0.25 M Tris-HCl (pH 6.8), 8% (w/v) SDS, and 20% glycerol) and collected 0, three, six, 12, and 18 hours after the HF treatment. An anti-Nrf2 antibody (Cell Signaling Technology, #12721, 1:500 dilution) and an anti-α-tubulin antibody (Sigma, T9026, 1:1000 dilution) were used.
(§5) To examine whether the selective decrease in the Keap1 KO-mCherry cells was caused by suppression of Nrf2 accumulation, Nrf2 protein was analyzed by immunoblotting at various points in time after isogenic Hepa1 cells were exposed to HF. […] The above experiment was repeated, and densitometry measurement of immunoblotting bands was conducted (FIG. 1F).

Data set [3] deals with Nrf2 protein in Keap1 KO-mCherry cells. Put plainly: Immunoblotting of Nrf2 protein after HF treatment. Type of data set: cell-based. As to conditions: 50 nM HF, 0-18 hours, whole cell lysates. The protocol:
as §4, §5
(In general: Immunoblotting shows a protein as a band on a membrane.)

Data set [4] is described as follows: Systemic side effect markers in cancer-bearing mice. It counts as in vivo, Keap1^FB/FB:Kras^G12D mice. An excerpt: Monocytes were isolated from the bone marrow, the spleen, and the thymus using Ficoll-Paque PREMIUM 1.084 (Cytiva 17-5446-02). The monocytes were stained with allophycocyanin-eFluor 780 conjugate anti-c-Kit (Invitrogen; Clone 2B8), Brilliant Violet 421 conjugate anti-B220 (Biolegend; Clone RA2-6B2), phycoerythrin conjugate anti-F4/80 (Biolegend; Clone BM8), fluorescein isothiocyanate conjugate anti-Ly6G (Biolegend; Clone 1A8), Brilliant Violet 421 conjugate anti-CD11b (Biolegend; Clone M1/70), fluorescein isothiocyanate conjugate anti-CD71 (eBiosciences; CloneR17217), phycoerythrin conjugate anti-Ter119 (eBiosciences; Clone TER-119), PE-Cyanine7 conjugate anti-CD4 (Invitrogen; CloneGK1.5), and allophycocyanin conjugate anti-CD8 (Biolegend; Clone S3-6.7). The dead cells were removed using propidium iodide staining. The analysis was made using FACSVerse (BD Biosciences). The data were analyzed using FlowJo software (BD Biosciences).
Because HF is slowly and continuously released from HFm through encapsulation of HF in polymer micelles, it was supposed that HFm may act as a far safer drug than HF. Thus, because the MTD of HF was 0.75 mg/kg bw, various side effect markers were examined in cancer-bearing model mice treated with 0.75 mg/kg bw of HFm and compared with those of the mice treated with the same amount of HF.
After KRAS-driven lung adenocarcinoma was grown for 17 weeks, the mice were treated with saline, HF (0.25 mg/kg), or HFm (0.25 mg/kg) every two days four times in total (FIG. 7A).

[5] abbreviates: 0.75 mg/kg bw iv four times, vs. HFm or saline.

With `O=C(CC1NCCCC1O)Cn1cnc2cc(Br)c(Cl)cc2c1=O` (stereo not drawn) [HF, Halofuginone hydrobromide], the “count of WT-GFP cells (relative fluorescence intensity)” value with WT-GFP cells (Hepa1) was “did not decrease substantially”. Moreover, in data set [1], the “count of Keap1 KO-mCherry cells (relative fluorescence intensity)” value is on record as “decreased significantly in a concentration-dependent manner”. Moreover, the Nrf2 protein level result in data set [2] is “not detected at all the points in time”. Moreover, the Nrf2 protein level entry in data set [3] is listed as “depleted rapidly”. Further, in data set [4] (0.25 mg/kg bw iv four times), the “erythrocyte count in peripheral blood” value is given as “did not affect” and the “leukocyte count in peripheral blood” value is on record as “decreased the leukocyte count with significance”. Further, the body weight changes result in data set [4] (0.25 mg/kg bw iv four times, vs. other groups) is on record as “equivalent”. In addition, in data set [4] (0.75 mg/kg bw iv four times), the “atrophy of the thymus” value is “remarkable”, the “erythroblasts (Ter119+CD71+) of the spleen” value is “decreased with significance”, the “erythrocytes in peripheral blood” value is recorded as “decreased” and the hematocrit levels entry is “decreased”. In addition, in data set [4] (0.75 mg/kg bw iv four times), the “leukocyte count in peripheral blood” value is recorded as “significant decrease”, the spleen cell count entry was “decreased with significance”, the spleen weight result is listed as “decreased with significance” and the “thymus CD4 single-positive cells (CD4+CD8-) count” value was “decreased”. Besides, in data set [4] (0.75 mg/kg bw iv four times), the “thymus double-negative cells (CD4-CD8-) count” value is recorded as “decreased”, the “thymus double-positive cells (CD4+CD8+) count” value was “decreased”, the “thymus total cell count” value is “decreased significantly” and the “total cell count of the bone marrow” value is given as “decreased significantly”. Moreover, in data set [4] (setting [5]), the “bone marrow B cells (B220+) count” value is “decreased significantly”, the “bone marrow macrophages (CD11b+F4/80+) count” value is listed as “decreased significantly”, the “bone marrow neutrophils (CD11b+Ly6G+) count” value is recorded as “decreased significantly” and the “bone marrow precursor cells (c-Kit+) count” value is recorded as “decreased significantly”. Besides, the “thymus CD8 single-positive cells (CD4-CD8+)” value in data set [4] (0.75 mg/kg bw iv four times, vs. saline or HFm) is reported as “tendency towards a lower frequency”.
